Source: US20080280837A1, “Biologically Active Compounds with Anti-Angiogenic Properties” (priority 2004, published 2008)

Target: T1, Human SST5 somatostatin receptor (SSTR5) (Homo sapiens, UniProt P35346)
T1 construct: expressed in transfected cells; host or cells: HEK-293 EBNA
Assay: Filter plate assay for SST5 receptor, displacement of [125I]SST-14
Assay type: binding
In short: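 HEK-293 EBNA membranes expressing human SST5 (5.5 μg) incubated 60 min at 25 °C with 4 nM [125I]SST-14 and compound in pH 7.5 Tris/EGTA/MgCl2/sucrose buffer. Bound radioactivity collected on PEI-coated glass fiber filters and counted; triplicate 1:5 dilution series from 125 μM, non-specific binding with excess cold ligand.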

T1 sequence (P35346 whole entry): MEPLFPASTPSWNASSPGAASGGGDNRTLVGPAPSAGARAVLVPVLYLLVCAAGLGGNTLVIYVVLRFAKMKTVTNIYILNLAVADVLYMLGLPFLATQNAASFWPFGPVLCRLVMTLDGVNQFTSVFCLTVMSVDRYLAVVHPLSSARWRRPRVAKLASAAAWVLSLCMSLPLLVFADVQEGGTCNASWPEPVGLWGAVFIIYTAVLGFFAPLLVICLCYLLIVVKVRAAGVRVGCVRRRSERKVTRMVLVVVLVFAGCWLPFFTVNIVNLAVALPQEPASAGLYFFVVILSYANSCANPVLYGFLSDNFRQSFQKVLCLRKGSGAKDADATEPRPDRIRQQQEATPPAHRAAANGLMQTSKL

| SSTR5 Inhib 0.5 uM % (inhibition of binding of SST-14 to SSTR5) [%] | SSTR5 Inhib 10 uM % (inhibition of binding of SST-14 to SSTR5) [%] | Structure (SMILES) |
| --- | --- | --- |
| 61 | 89 | COC[C@H]1OC(OCc2ccc3ccccc3c2)[C@H](NC(=O)CCCNC(=N)N)[C@@H](OCc2ccc3ccccc3c2)[C@@H]1O (stereo partly shown) [Compound 75] |
| 74 | 95 | COC[C@H]1OC(OCc2ccc(Cl)cc2)[C@H](NC(=O)CCN)[C@H](OCc2ccc(Cl)cc2)[C@@H]1O (stereo partly shown) [Compound 39] |
| 67 | 96 | COC[C@H]1OC(OCc2ccc(Cl)cc2)[C@H](NC(=O)CCCN)[C@H](OCc2ccc3ccccc3c2)[C@@H]1O (stereo partly shown) [Compound 24] |
| 54 | 87 | COC[C@H]1OC(OCc2ccc3ccccc3c2)[C@H](NC(=O)CCNC(=N)N)[C@H](OCc2ccccc2)[C@@H]1O (stereo partly shown) [Compound 85] |
| 74 | 92 | COC[C@H]1OC(OCc2ccc(Cl)cc2)[C@H](NC(=O)CCNC(=N)N)[C@H](OCc2ccc3ccccc3c2)[C@@H]1O (stereo partly shown) [Compound 50] |
| 78 | 94 | COC[C@H]1OC(OCCc2ccccc2)[C@H](NC(=O)CCCN)[C@@H](OCc2ccc3ccccc3c2)[C@@H]1O (stereo partly shown) [Compound 44] |
| 33 | 76 | COC[C@H]1OC(OCc2ccccc2)[C@H](NC(=O)CCCN)[C@H](OCc2ccccc2)[C@@H]1O (stereo partly shown) [Compound 154] |
| 25 | 76 | CSC1O[C@H](COCc2ccccc2)[C@@H](O)[C@@H](OCc2ccc3ccccc3c2)[C@H]1NC(=O)CCCN (stereo partly shown) [Compound 156] |
| 45 | 86 | CSC1O[C@H](COCc2ccccc2)[C@@H](O)[C@@H](OCc2ccc(-c3ccccc3)cc2)[C@H]1NC(=O)CCCN (stereo partly shown) [Compound 94] |
| 80 | 96 | COC[C@H]1OC(OCc2ccc(Cl)cc2)[C@H](NC(=O)CCCN)[C@@H](OCc2ccc(-c3ccccc3)cc2)[C@@H]1O (stereo partly shown) [Compound 30] |
| 28 | 80 | CSC1O[C@H](COCc2ccccc2)[C@@H](O)[C@@H](OCc2ccc3ccccc3c2)[C@H]1NC(=O)CCNC(=N)N (stereo partly shown) [Compound 128] |
| 43 | 73 | CSC1O[C@H](COCc2ccc(Cl)cc2)[C@@H](O)[C@@H](OCc2ccc3ccccc3c2)[C@H]1NC(=O)CN (stereo partly shown) [Compound 167] |
| 42 | 76 | CSC1O[C@H](COCc2ccc(Cl)cc2)[C@@H](O)[C@@H](OCc2ccc3ccccc3c2)[C@H]1NC(=O)CNC(=N)N (stereo partly shown) [Compound 150] |
| 27 | 72 | COC1C(O)C(COCc2ccc(-c3ccccc3)cc2)OC(OCc2ccc3ccccc3c2)C1NC(=O)CCNC(=N)N (stereo not shown) [Compound 169] |
| 74 | 96 | COC[C@H]1OC(OCc2ccc(Cl)cc2)[C@H](NC(=O)CCCN)[C@H](OCc2ccc(-c3ccccc3)cc2)[C@@H]1O (stereo partly shown) [Compound 27] |
| 57 | 91 | COC[C@H]1OC(OCc2ccc(Cl)cc2)[C@H](NC(=O)CCCNC(=N)N)[C@@H](OCc2ccc(Cl)cc2)[C@@H]1O (stereo partly shown) [Compound 56] |
| 48 | 80 | CSC1O[C@H](COCc2ccc(-c3ccccc3)cc2)[C@@H](O)[C@@H](OCc2ccc3ccccc3c2)[C@H]1NC(=O)CCCN (stereo partly shown) [Compound 127] |
| 61 | 90 | COC[C@H]1OC(OCCc2ccccc2)[C@H](NC(=O)CCCNC(=N)N)[C@H](OCc2ccc(Cl)cc2)[C@@H]1O (stereo partly shown) [Compound 62] |
| 40 | 80 | COC[C@H]1OC(OCc2ccc(-c3ccccc3)cc2)[C@H](NC(=O)CCCNC(=N)N)[C@@H](OCc2ccc(-c3ccccc3)cc2)[C@@H]1O (stereo partly shown) [Compound 130] |
| 77 | 96 | COC[C@H]1OC(OCc2ccc3ccccc3c2)[C@H](NC(=O)CCN)[C@H](OCc2ccc(-c3ccccc3)cc2)[C@@H]1O (stereo partly shown) [Compound 26] |
| 47 | 71 | COC1C(O)C(COCc2ccc3ccccc3c2)OC(OCc2ccc(Cl)cc2)C1NC(=O)CNC(=N)N (stereo not shown) [Compound 173] |
| 38 | 76 | CSC1O[C@H](COCc2ccc(-c3ccccc3)cc2)[C@@H](O)[C@@H](OCc2ccc(Cl)cc2)[C@H]1NC(=O)CCCN (stereo partly shown) [Compound 148] |
| 58 | 83 | COC[C@H]1OC(OCc2ccccc2)[C@H](NC(=O)CCNC(=N)N)[C@H](OCc2ccccc2)[C@@H]1O (stereo partly shown) [Compound 112] |
| 31 | 75 | COC[C@H]1OC(OCc2ccc(Cl)cc2)[C@H](NC(=O)CNC(=N)N)[C@H](OCc2ccc3ccccc3c2)[C@@H]1O (stereo partly shown) [Compound 159] |
| 44 | 85 | COC[C@H]1OC(OCc2ccccc2)[C@H](NC(=O)CCCN)[C@@H](OCc2ccc(-c3ccccc3)cc2)[C@@H]1O (stereo partly shown) [Compound 95] |
| 77 | 96 | COC[C@H]1OC(OCc2ccc3ccccc3c2)[C@H](NC(=O)CCCN)[C@@H](OCc2ccc(-c3ccccc3)cc2)[C@@H]1O (stereo partly shown) [Compound 25] |
| 90 | 98 | COC[C@H]1OC(OCc2ccccc2)[C@H](NC(=O)CCN)[C@H](OCc2ccc3ccccc3c2)[C@@H]1O (stereo partly shown) [Compound 18] |
| 67 | 95 | COC[C@H]1OC(OCc2ccc3ccccc3c2)[C@H](NC(=O)CCNC(=N)N)[C@H](OCc2ccc(-c3ccccc3)cc2)[C@@H]1O (stereo partly shown) [Compound 36] |
| 50 | 90 | COC[C@H]1OC(OCc2ccc(-c3ccccc3)cc2)[C@H](NC(=O)CCCN)[C@@H](OCc2ccc(Cl)cc2)[C@@H]1O (stereo partly shown) [Compound 63] |
